Earlier results in US20110244050A1, “PULSED-RELEASE SILDENAFIL COMPOSITION AND METHOD FOR PREPARING SAID COMPOSITION” (SIEGFRIED RHEIN S.A. DE C.V., priority 2008, published 2011).

How the values were obtained:
[1] = in vivo

CCCc1nn(C)c2c(=O)[nH]c(-c3cc(S(=O)(=O)N4CCN(C)CC4)ccc3OCC)nc12 [sildenafil]
solubility in acidic media (acidic media, like in the stomach): adequate
solubility in alkaline media (alkaline media, like that found in the intestine): decreases markedly
plasmatic elimination half-life [1]: about 4 hours
